Results taken from PMC9084902, “Low-Molecular Weight Protamine Overcomes Chondroitin Sulfate Inhibition of Neural Regeneration” (Frontiers in Cell and Developmental Biology, 2022).
Entries after “also recorded” stand apart in the source; their conditions may differ.

Experiments:
hippocampal neurons = assay: cell toxicity seen in neuronal morphology / neuronal cells in vitro; type: cell-based, Wistar rat; details: neuronal systems, Figures 2, 4
Experimental: (§1) The cortex or hippocampus were obtained from 17 days-old Wistar rat embryos and transferred to ice-cold preparation solution. Neurons were further isolated exactly as described earlier in Sahu’s publication ([Sahu et al., 2019]). Primary rat cortical or hippocampal neurons (E17 Wistar rats) were cultured in 96-well plates at the density of 20000 cells/well in Neurobasal medium supplemented with B27 serum substitute, penicillin, streptomycin and L-glutamate for 2 days in vitro (DIV). The plates were precoated with aggrecan (5 ug/ml, 150 µl/well). Protamine or protamine peptides were added to the culture medium at different concentrations. To analyze the effect of protamine or its fragment on neurite outgrowth, the plates were coated with 10 μg/ml of protamine or LMWP. For the experiment with chondroitinase, the aggrecan-coated plates were treated with chondroitinase ABC (Amsbio AMS. E1028, lot CF0029) for 4 h followed by 2 times washing with PBS before cell plating, and the cell culture imaging was carried out after 3 DIV incubation with 4 uM LMWP added to the medium. Neurite outgrowth was imaged with phase contrast microscopy (Olympus IX70 microscope and Retiga 2000R digital camera) using both x10 and x20 objectives. Processes of neurons over the diameter of the neuronal soma were interpreted as neurites. Neurite length was measured with ImageJ software and averaged from 2 to 3 independent experiments with 1–2 technical replicas in each independent experiment.

cortical neurons [1] = assay: neurite outgrowth on aggrecan substrate, cortical neurons; type: cell-based, Wistar rat
Experimental: as §1, with “Processes of neurons over the diameter of the neuronal soma were interpreted as neurites.” left out

cortical neurons [2] = assay: neurite outgrowth on chondroitinase ABC-treated aggrecan substrate, cortical neurons; type: cell-based, Wistar rat; details: ChABC 4 h, 4 µM LMWP in medium, 3 DIV; p = 0.012, unpaired t-test, n = 6; Figure 5B
Experimental: as §1, with “Processes of neurons over the diameter of the neuronal soma were interpreted as neurites.” left out

[3] = tested on: mouse cervical hemisection model; assay: vertical screen test, C5 hemisection, ICV delivery; type: in vivo, C57BL6/NHsd mouse; details: n = 5–10
Experimental: (§2) The mouse was placed on the brink of a horizontal wire screen (25 × 22 cm, diameter of wires 2 mm spaced at 1 cm) faced to edge. Immediately after that the screen was turned vertically to place the mouse to the upside down position at the lower edge. The time that the animal needed to climb to the upper edge was measured during 1 min. If the animal was not able to climb up or fell down from the screen the maximum time 60 s was marked as the climbing time. The average parameter of three subsequent trials repeated with at least 1 min interval was used for data analysis.

[4] = tested on: mouse cervical hemicontusion model; assay: vertical screen test, C5 hemicontusion, ICV delivery; type: in vivo, C57BL6/NHsd mouse; details: n = 6–11
Experimental: as §2

[5] = tested on: NF200+ fibers in trauma hemisphere of spinal cord; assay: NF200 immunohistochemistry, C5 hemicontusion, subcutaneous delivery; type: in vivo, C57BL6/NHsd mouse; details: 16 µg s.c. daily 49 days
Experimental: (§3) The effectiveness of systemically delivered LMWP in treatment of spinal cord trauma was tested in the cervical hemicontusion model (Figure 1B). Baseline behavior was assessed 1 week before the trauma surgery, and the results were used for balanced distribution of animals to the 3 experimental groups (“sham”, “trauma + PBS” and “trauma + LMWP”). Each housing cage contained animals from all three groups. Subcutaneous injections to the back area were started on the next day after the trauma and continued daily for 49 days. LMWP was injected subcutaneously at the 16 µg dose in 200 µl of sterile PBS. The groups “sham” and “trauma + PBS” got the same volume of PBS. Behavioral assessment was started 2 weeks after the trauma and finished at the week 12.
The samples for immunohistochemistry (IHC) were taken from all animals tested in the hemicontusion study with subcutaneous 7 weeks treatment (Figure 1B) at the end of the experiment at 12 weeks (Figure 1B). The cervical spinal cord segments were sectioned into 40 microns thick transverse sections from tissue blocks (samples embedded into solid OCT compound by freezing with dry ice) by using microtome (Leica CM3050 S). Few spinal cord samples were excluded from the study due to technical problems in spinal cord dissection or sectioning procedures, and the total amount of 11 spinal cords of the “trauma + PBS” and 7 spinal cords of the “trauma + LMWP” group were analyzed. Every fourth section per animal was chosen for IHC neurofilament staining making the section interval […]. The sections were stained with primary antibodies against NF200 (ab8135, Abcam, 1:500) in blocking buffer (1xTBS with 0.5% TX-100 and with 3%BSA) and AlexaFluor 594 (REF A11037, Invitrogen) secondary antibodies at the dilution 1:400 in TBS-T (1xTBS with 0.5% TX-100) on microscope slides. The washings prior to and between the stainings were done with TBS-T, whereas the final wash before mounting with Vectastain mounting medium with DAPI, was done by using reverse osmose water. […]

[6] = tested on: mouse cervical hemicontusion model; assay: vertical screen (climbing) test, C5 hemicontusion, subcutaneous delivery; type: in vivo, C57BL6/NHsd mouse; details: 16 µg s.c. daily 49 days; n = 7–13
Experimental: as §3, §2

[7] = tested on: mouse cervical hemicontusion model; assay: locomotor activity in open field, C5 hemicontusion, subcutaneous delivery; type: in vivo, C57BL6/NHsd mouse; details: 15 min open field, 16 µg s.c. daily 49 days; n = 7–13
Experimental: as §3
To evaluate the locomotor activity the animals were released to the corner of a transparent plexiglas chamber (30 cm × 30 cm, MedAssiociates, St.Albans,VT; illumination about 100lx) for 15 min. The travelled distance and the time spent in vertical activity (exploratory rearings) were analyzed with the Activity Monitor v5.1 software (Med Associates, St. Albans, VT).

[8] = cited from earlier work
Text: We therefore tested protamine fragments that might be nontoxic but would still retain the ability to overcome the CSPG inhibition. […] This fragment is found in the literature as the low-molecular weight protamine (LMWP) with the capability to penetrate through the cell membranes and to carry drug cargoes to tissues including ...

Sequence: VSRRRRRRGGRRRR [LMWP, low-molecular weight protamine]
- toxicity for neuronal cells (summary) (hippocampal neurons): little if any toxicity even at high concentrations
- stimulation of neurite outgrowth versus 0 μg/ml (cortical neurons [1]; LMWP in medium at 1.75 µM (3.3 μg/ml), p = 0.0319, n = 6, Figure 5A): ~6 times
- stimulation of neurite outgrowth versus 0 μg/ml (cortical neurons [1]; LMWP in medium at 3.5 µM (6.6 μg/ml), p < 0.0001, n = 6, Figure 5A): more than 20 times
- effect of CS digestion of aggrecan by chondroitinase ABC on LMWP-induced neurite outgrowth (cortical neurons [2]): significantly decreased the neurite outgrowth-promoting effect of LMWP; also recorded: abolished the activity of LMWP to enhance neurite outgrowth
- climbing time in vertical screen, time course ([3]; ICV LMWP 4 µl of 1 mg/ml daily, 6 days from day 3, weeks 2-9): progressively reduced the climbing time
- climbing time difference versus PBS-treated group ([3]; ICV LMWP, week 9, p = 0.0304, Kruskal-Wallis with Dunn's): reached a statistically significant level at the week 9 after the trauma
- vertical climbing test, time course ([4]; ICV LMWP 4 µl of 1 mg/ml daily, 6 days from day 3): progressive improvement in the vertical climbing test; also recorded: progressively improve the climbing function in the vertical screen test starting from the week 3 after the trauma induction
- climbing time versus sham after second post-trauma week ([4]; ICV LMWP, week 3 p = 0.1508, week 4 p = 0.1311, week 5 p = 0.6967, PBS group differed from sham until week 5): did not reveal a significant difference after the second post-trauma week
- NF200+ signal area near trauma epicenter versus PBS ([5]; 60 µm rostral, p = 0.0064, no similar trend in the sections around): significant difference of the NF200+ signal area in one section level localized almost in the middle of the trauma epicenter
- area of NF200+ signal on trauma periphery versus PBS ([5]; about ±400 µm from epicenter: 400 µm rostral p = 0.0021, −400 µm caudal p = 0.0346, Mann-Whitney, n = 7–11): increased the area of the NF200+ signal in the section levels located on the trauma periphery
- NF200+ fibers (%) in trauma hemisphere, LMWP versus control group ([5]; week 12, n = 7–11): statistically significant group difference between the LMWP-treated mice and the control mice in NF200+ fibers (%)
- climbing test recovery versus PBS [6]: tendency for better recovery in the LMWP group compared to the PBS group
- general locomotor activity [7]: did not affect general locomotor activity
- blood-brain barrier passage [8]: reported to pass the blood-brain barrier
- cell membrane penetration and cargo delivery to tissues including the brain [8]: capability to penetrate through the cell membranes and to carry drug cargoes to tissues including the brain
- toxicity relative to protamine ([8]; ref Byun et al., 2000, He et al., 2014, Edwards et al., 2020): non-toxic substitute of protamine
